Results from PMC5859250, “Contribution of transformation products towards the total herbicide toxicity to tropical marine organisms” (Scientific Reports, 2018).
≈ marks a conversion by molar mass, not a printed value. Entries after “also recorded” stand apart in the source; their conditions may differ.

Experiments:
Brachionus plicatilis = tested on: Brachionus plicatilis; design: method as in PMID 1722733; settings: cited from earlier work
Symbiodinium sp. = assay: Microalgal PAM fluorometry assay, inhibition of ∆F/Fm′ (24 h, 96-well plate); type: cell-based; settings: for LOEC, effect on ∆F/Fm′ / NOEC, effect on ∆F/Fm′: pure transformation product, ANOVA p < 0.05
Source text: (§1) Microalgae play a critical role in the marine food web and have been used in a number of sensitive assays for the assessment of toxicity of both herbicides and their transformation products[13],[16],[60]. High throughput 96 well plate designs allow for increased replication and a wide range of concentrations especially when paired with pulse amplitude modulation (PAM) fluorometry[50],[61]. PAM fluorometry measures chlorophyll fluorescence and can be used to calculate inhibitions of effective quantum yield ∆F/Fm′, which is proportional to reduced photosynthetic efficiency[62] and growth in microalgae[63] and can be plotted against toxicant concentrations to derive concentrations that inhibit ∆F/Fm′ by 10, 20 and 50% (IC10, IC20 and IC50). In the present study the green algae (Dunaliella sp.) and coral symbiont (Symbiodinium sp.) were exposed to herbicides and aged herbicide solutions for 24 h in a 96-well plate format. A Maxi-Imaging-PAM (I-PAM) (Walz, GmbH Germany) was used to measure inhibition of ∆F/Fm′ using settings provided previously[36] and below.
(§2) Symbiodinium cells were isolated from coral by air blasting branches of Acropora tenuis colonies collected (collected under the permit G10-33440.1) at 2–5 m depth in Nelly Bay, Magnetic Island, GBR[36]. Symbiodinium cells were inoculated into sterile IMK growing media, the culture purified, DNA extracted, and Clade C1 identified as published previously[64],[65]. Cultures were maintained at 26 °C, 60 µE PAR, 14:10 light:dark photoperiod inside environmental chambers (Steridium e500). The Dunaliella sp. (CS-353) (Chlorophyceae) was obtained from the CSIRO Collection of Living Microalgae (CCLM). The algae was subcultured and grown in F2 media. For the toxicology assays, an exponentially growing culture was employed[63] and density adjusted by hemocytometry under 10× magnification. Day 7 sub-cultures were used throughout the experiment.
(§3) Herbicide solutions were delivered into each treatment plate using a Perkin Elmer Janus liquid handling system. Each well of the black 96-well plates (Perkin Elmer) received 100 µl herbicide solution as well as 100 µl of algal suspension (added via multi-channel pipette) and the solution was gently mixed. […] Each plate included a 3 µg l^−1 positive diuron control (n = 4) to confirm consistent sensitivities among the replicate algal subcultures. Treatments positions were randomised across the plates in duplicate[50],[61],[66]. Symbiodinium culture plates were incubated over a 12:12 h light:dark cycle at 26 °C and 60–70 µmol photons m^−2 s^−1 and Dunaliella sp. Plates incubated at: 26 °C and 130 µmol photons m^−2 s^−1. Microalgae were exposed for 24 h prior to PAM measurements. Samples were subjected to the 50 µmol photons m^−2 s^−1 actinic light for 1 min prior to measurement in the Maxi-IPAM (Actinic light = 1, ML = 10, ML frequency = 8, gain = 2 and damping = 1).
(§4) The model was constrained by applying a lower limit of 0% inhibition and all curves were tested for normality of the residuals and a replicate test was applied to assess the goodness of fit[36]. The probability that ICX values generated by the logistic curves were statistically different between parent and aged herbicide solutions was tested by applying the F test in Graph Pad Prism v6. ICXs were considered different when p < 0.05. Where inhibition data could not be fitted to logistic curves, one-way analysis of variance (ANOVA) was performed to identify treatments which caused significant (p < 0.05) inhibition comparison with control treatments (NCSS v9, Utah, USA). The larval prawn experimental data was arcsine square root transformed prior to statistical analysis.

Dunaliella sp. = assay: as above; type: cell-based; settings: for LOEC, effect on ∆F/Fm′ / NOEC, effect on ∆F/Fm′: pure transformation product, ANOVA p < 0.05
Source text: as §1, §2, §3, §4

Brachionus calyciflorus = tested on: Brachionus calyciflorus; design: method as in PMID 1722733; settings: cited from earlier work
Diporeia spp. = tested on: Diporeia spp.; design: method as in PMID 19533344; settings: cited from earlier work
Hyalella azteca = tested on: Hyalella azteca; design: method as in PMID 19533344; settings: cited from earlier work
[1] = tested on: Phaeodactylum tricornutum; design: method as in PMID 20800855; settings: cited from earlier work
Cylindrotheca closterium = tested on: Cylindrotheca closterium; design: method as in PMID 20800855; settings: cited from earlier work
Navicula sp. = tested on: Navicula sp.; design: method as in PMID 20800855; settings: cited from earlier work
Nephroselmis pyriformis = tested on: Nephroselmis pyriformis; design: method as in PMID 20800855; settings: cited from earlier work
[2] = 24 h, read-out: IC20 parent (inhibition of ∆F/Fm′ by 20%)

Question: Which LC50 (Brachionus plicatilis) does the source give for `Nc1ccc(Cl)c(Cl)c1` [3,4-DCA, 3,4-dichloroaniline] here?
Answer: Its LC50 is ~ 60 mg l^−1.

Question: What about the “Inhibition of ∆F/Fm′ (in words)” value (Symbiodinium sp.; Symbiodinium sp., concentrations up to 273 µg l^−1) of the same compound?
Answer: The value was “no significant inhibition; also recorded: did not inhibit ∆F/Fm′”.

Question: What about the “LOEC, effect on ∆F/Fm′” value (Symbiodinium sp.; Symbiodinium sp.) of the same compound?
Answer: The value was greater than 273.41 µg/L.

Question: And the “NOEC, effect on ∆F/Fm′” value (Symbiodinium sp.; Symbiodinium sp.)?
Answer: The value was 273.41 µg/L.

Question: And the “Inhibition of ∆F/Fm′ (in words)” value (Dunaliella sp.; Dunaliella sp., concentrations up to 273 µg l^−1)?
Answer: The value was “no significant inhibition; also recorded: did not inhibit ∆F/Fm′”.

Question: What about the “LOEC, effect on ∆F/Fm′” value (Dunaliella sp.; Dunaliella sp.) of the same compound?
Answer: The value was greater than 273.41 µg/L.

Question: What about the “NOEC, effect on ∆F/Fm′” value (Dunaliella sp.; Dunaliella sp.) of the same compound?
Answer: The value was 273.41 µg/L.

Question: And the LC50 (Brachionus calyciflorus)?
Answer: The LC50 was ~ 60 mg l^−1.

Question: Which “96-hour LC50” value (Diporeia spp.) does the source give for `CCNc1nc(N)nc(Cl)n1` [DIA, desisopropylatrazine] here?
Answer: The value was greater than 3 µg/mL.

Question: What about the “96-hour LC50” value (Hyalella azteca) of the same compound?
Answer: The value was greater than 3 µg/mL.

Question: And the “Inhibition of ∆F/Fm′” value (Symbiodinium sp.; Symbiodinium sp., 458 µg l^−1)?
Answer: The value was less than 8%.

Question: And the “LOEC, effect on ∆F/Fm′” value (Symbiodinium sp.; Symbiodinium sp.)?
Answer: The value was greater than 458.31 µg/L.

Question: What about the “NOEC, effect on ∆F/Fm′” value (Symbiodinium sp.; Symbiodinium sp.) of the same compound?
Answer: Its value is 458.31 µg/L.

Question: And the “Inhibition of ∆F/Fm′” value (Dunaliella sp.; Dunaliella sp., 458 µg l^−1, significant (ANOVA, p < 0.05))?
Answer: The value was less than 8%.

Question: And the “LOEC, effect on ∆F/Fm′” value (Dunaliella sp.; Dunaliella sp.)?
Answer: Its value is 458.31 µg/L.

Question: What about the “NOEC, effect on ∆F/Fm′” value (Dunaliella sp.; Dunaliella sp.) of the same compound?
Answer: The value was 148.97 µg/L.

Question: What does the source list for `CC(C)Nc1nc(N)nc(Cl)n1` [DEA, desethylatrazine]?
Answer: IC20 (Symbiodinium sp.; [2]): 0.218 µg/mL (≈ 1.16 µM); IC10 parent (inhibition of ∆F/Fm′ by 10%) (Symbiodinium sp.; Symbiodinium sp., 24 h, pure compound): 103 (93–115) µg l^−1; Inhibition of ∆F/Fm′ (Symbiodinium sp.; Symbiodinium sp., evident at 84 µg l^−1): 9–35%; LOEC, effect on ∆F/Fm′ (Symbiodinium sp.; Symbiodinium sp.): 83.68 µg/L; NOEC, effect on ∆F/Fm′ (Symbiodinium sp.; Symbiodinium sp.): 55.63 µg/L; IC20 (Dunaliella sp.; [2]): 0.31 µg/mL (≈ 1.65 µM); IC10 parent (inhibition of ∆F/Fm′ by 10%) (Dunaliella sp.; Dunaliella sp., 24 h, pure compound): 157 (142–173) µg l^−1; Inhibition of ∆F/Fm′ (Dunaliella sp.; Dunaliella sp., evident at 56 µg l^−1): 9–35%; LOEC, effect on ∆F/Fm′ (Dunaliella sp.; Dunaliella sp.): 55.63 µg/L; NOEC, effect on ∆F/Fm′ (Dunaliella sp.; Dunaliella sp.): 33.30 µg/L; IC10 [1]: 0.046 µg/mL (≈ 0.245 µM); IC10 (Cylindrotheca closterium): 0.102 µg/mL (≈ 0.544 µM); IC10 (Navicula sp.): 0.111 µg/mL (≈ 0.592 µM); IC10 (Nephroselmis pyriformis): 0.0266 µg/mL (≈ 0.142 µM)
